Assay results from EPA's ToxValDB 9.5 (doi:10.2903/j.efsa.2015.4100).
Values after ≈ are worked out from the molar mass of the structure shown.

Key:
Typhlodromus pyri = experiment: LR50; higher = less toxic; conditions: not reported; mortality
Aphidius rhopalosiphi = experiment: LR50; higher = less toxic; conditions: not reported; mortality
Oncorhynchus mykiss = conditions: acute; duration: 96 hours; mortality
Pimephales promelas = conditions: chronic/long-term; duration: 32 days; reproduction
Apis mellifera = conditions: acute, mortality
Bibionidae = conditions: chronic/long-term; duration: 28 days; reproduction
Neomysis kadiakensis = conditions: mortality
Canidae = conditions: chronic; duration: 52 weeks; oral; Dog Other; organ weight
Daphnia magna = conditions: chronic/long-term; duration: 21 days; reproduction

## CNC(=O)C(OC)c1ccccc1COc1cc(C)ccc1C (centres undefined) [Mandestrobin]
Typhlodromus pyri
  LR50: > 1000 g/ha
Aphidius rhopalosiphi
  LR50: > 1000 g/ha
Rattus norvegicus; acute, oral, mortality
  LD50: > 200 mg/kg-day
Rattus norvegicus; reproduction developmental
  NOAEL: 163 mg/kg-day
Rattus norvegicus; reproduction developmental, organ weight
  LOAEL: 60.2 mg/kg-day
Oncorhynchus mykiss
  LC50: 0.84 µg/mL (≈ 2.68 µM)
Pimephales promelas
  NOEC: 0.15 mg/L
Apis mellifera; dermal
  LD50: > 100 µg/piece
Apis mellifera; oral, unspecified
  LD50: > 111 µg/piece
Bibionidae
  NOEC: 8.1 mg/L
Neomysis kadiakensis; acute, duration: 96 hours
  LC50: 0.43 µg/mL (≈ 1.37 µM)
Neomysis kadiakensis; chronic/long-term, duration: 36 days
  NOEC: 0.0036 mg/L
Canidae
  NOAEL: 19 mg/kg-day
Daphnia magna
  NOEC: 0.56 mg/L
Tagia sp.; acute, duration: 14 days, mortality
  LC50: 84 mg/kg
Tagia sp.; chronic/long-term, duration: 56 days
  NOEC: 3.75 mg/kg
Colinus virginianus; acute, duration: 8 days, oral, diet, mortality
  LC50: > 1340 mg/kg-day
Colinus virginianus; acute, oral, mortality
  LD50: > 2250 mg/kg-day
Colinus virginianus; reproduction developmental, duration: 21 weeks, reproduction
  NOEC: 91.1 mg/kg-day
